We go through eight molecules from PubChem BioAssay (NCI).

Each structure is given as a SMILES string.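 Growth conditions: 96-well plates. Treatment: test compound, 48 hours, 5 concentrations. Analysis: linear interpolation between bracketing concentrations; unreached endpoints set to highest concentration. GI50 is the concentration that inhibits growth by half. TGI: concentration producing complete growth inhibition.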

Some test systems named below: SF-295 CNS; U251 CNS; NCI/ADR-RES ovarian; HCT-15 colon; OVCAR-4 ovarian; HCC-2998 colon; UACC-257 melanoma; OVCAR-3 ovarian; NCI-H226 lung; SK-MEL-28 melanoma.
Common to all, as to test: DTP human tumour cell line panel, 48 h

Take `CC1(C)N=C(N)N=C(N)N1c1ccc(OCCCNC(=O)Nc2ccc(S(=O)(=O)F)cc2)c(Cl)c1`: the GI50 was 0.504 µM in the test on SF-295 CNS; 0.211 µM in the test with U251 CNS; 98.5 µM in the test with NCI/ADR-RES ovarian; 6.62 µM in the test with HCT-15 colon; 4.05 µM in the test with OVCAR-4 ovarian; 0.832 µM in the test with HCC-2998 colon. In addition, the GI50 is 5.11 µM in the test with UACC-257 melanoma, 1.55 µM in the test on OVCAR-3 ovarian, 11.2 µM in the test with NCI-H226 lung and 1.74 µM in the test on SK-MEL-28 melanoma. The TGI in the test with SF-295 CNS, in the test on U251 CNS, in the test with NCI/ADR-RES ovarian, in the test with HCT-15 colon, with OVCAR-4 ovarian and in the test on HCC-2998 colon was more than 100 µM in each case. Further, the TGI in the test with UACC-257 melanoma, with OVCAR-3 ovarian, in the test with NCI-H226 lung and in the test with SK-MEL-28 melanoma was more than 100 µM each time.

Regarding `Cc1ccc(N)c(S)c1`, the TGI in the test with SF-295 CNS stood at 43.4 µM; with U251 CNS, 28.5 µM; with NCI/ADR-RES ovarian it was 56.8 µM; in the test on HCT-15 colon, 30.4 µM; with OVCAR-4 ovarian, 43.5 µM; with HCC-2998 colon, 88.1 µM. Further, the TGI in the test on UACC-257 melanoma amounted to 54.7 µM; in the test on OVCAR-3 ovarian, 44 µM; in the test with NCI-H226 lung, 49.1 µM; in the test with SK-MEL-28 melanoma, 47.6 µM.

With `O=c1c2ccccc2nc(-c2cccc([N+](=O)[O-])c2)n1O`, the TGI was more than 100 µM in the test on SF-295 CNS; more than 100 µM with U251 CNS; more than 87.4 µM in the test on NCI/ADR-RES ovarian; more than 100 µM in the test with HCT-15 colon; more than 100 µM in the test on OVCAR-4 ovarian; more than 100 µM with HCC-2998 colon. Besides, the TGI with UACC-257 melanoma was more than 100 µM; in the test with OVCAR-3 ovarian, more than 94.3 µM; with NCI-H226 lung, more than 100 µM; in the test on SK-MEL-28 melanoma it was more than 100 µM.

In the case of `Cn1cc(C2=C(c3ccsc3)C(=O)NC2=O)c2ccccc21`, the GI50 is more than 25 µM in the test with SF-295 CNS; more than 25 µM in the test with U251 CNS; more than 25 µM in the test on NCI/ADR-RES ovarian; more than 22.7 µM in the test with HCT-15 colon; more than 25 µM in the test with OVCAR-4 ovarian; more than 25 µM with HCC-2998 colon. Further, the GI50 is more than 25 µM in the test with UACC-257 melanoma, 17.2 µM in the test with OVCAR-3 ovarian, more than 22.6 µM in the test on NCI-H226 lung and more than 25 µM in the test on SK-MEL-28 melanoma. The TGI with SF-295 CNS, in the test with U251 CNS, in the test on NCI/ADR-RES ovarian, with HCT-15 colon, in the test with OVCAR-4 ovarian and in the test with HCC-2998 colon was more than 25 µM each time. Further, the TGI in the test with UACC-257 melanoma, in the test with OVCAR-3 ovarian, in the test with NCI-H226 lung and in the test on SK-MEL-28 melanoma was more than 25 µM in each case.

`COc1cc(/C=C/C(=O)c2cccc(-n3cc(-c4ccccc4)[nH]c3=O)c2)cc(OC)c1OC`: the GI50 in the test on SF-295 CNS is 1.9 µM; with U251 CNS it was 0.63 µM; in the test with NCI/ADR-RES ovarian, 1.09 µM; with HCT-15 colon it was 1.13 µM; with OVCAR-4 ovarian, 1.88 µM; in the test with HCC-2998 colon, 1.26 µM. The GI50 is 1.52 µM in the test on UACC-257 melanoma, 1.23 µM with OVCAR-3 ovarian, 14.6 µM in the test with NCI-H226 lung and 1.74 µM in the test on SK-MEL-28 melanoma. For the same molecule, the TGI in the test with SF-295 CNS was 4.41 µM; in the test with U251 CNS, 1.94 µM; in the test with NCI/ADR-RES ovarian, 4.58 µM; with HCT-15 colon, 5.7 µM; with OVCAR-4 ovarian, 5.07 µM; in the test on HCC-2998 colon it was 2.51 µM. Moreover, the TGI with UACC-257 melanoma stood at 3.17 µM; in the test with OVCAR-3 ovarian, 3.14 µM; with NCI-H226 lung it was 97.4 µM; with SK-MEL-28 melanoma, 3.2 µM.

Turning to `O=c1[nH]c2ccccc2n1C1CCNCC1`, the GI50 in the test with SF-295 CNS, in the test with U251 CNS, in the test on NCI/ADR-RES ovarian, in the test with HCT-15 colon, in the test on OVCAR-4 ovarian and in the test on HCC-2998 colon was more than 100 µM in each case. Also, the GI50 with UACC-257 melanoma, with OVCAR-3 ovarian, in the test with NCI-H226 lung and with SK-MEL-28 melanoma was more than 100 µM each time. Besides, the TGI with SF-295 CNS, with U251 CNS, with NCI/ADR-RES ovarian, with HCT-15 colon, with OVCAR-4 ovarian and with HCC-2998 colon was more than 100 µM in each case. The TGI with UACC-257 melanoma, in the test with OVCAR-3 ovarian, in the test with NCI-H226 lung and in the test on SK-MEL-28 melanoma was more than 100 µM throughout.

As for `COc1cccc2c1nc(C(F)F)n2-c1nc(-c2ccc(NS(=O)(=O)CCN(C)C)cc2)nc(N2CCOCC2)n1`, the 50% growth inhibitory concentration (GI50) with SF-295 CNS was 0.0875 µM; in the test with U251 CNS it was 0.454 µM; in the test with NCI/ADR-RES ovarian, 0.434 µM; in the test with HCT-15 colon, 0.152 µM; in the test on OVCAR-4 ovarian it was 0.138 µM; with HCC-2998 colon, 0.0974 µM. In addition, the 50% growth inhibitory concentration (GI50) with UACC-257 melanoma is 0.116 µM; in the test on OVCAR-3 ovarian it was 0.105 µM; with NCI-H226 lung, 0.191 µM; in the test on SK-MEL-28 melanoma, 0.0774 µM. Besides, the TGI in the test on SF-295 CNS worked out at 1.44 µM; with U251 CNS, 5.09 µM; with NCI/ADR-RES ovarian it was 33.6 µM; in the test with HCT-15 colon, 5.06 µM; in the test on OVCAR-4 ovarian, 2.58 µM; with HCC-2998 colon it was 17.4 µM. In addition, the TGI stood at 1.72 µM in the test with UACC-257 melanoma, 3.13 µM in the test on OVCAR-3 ovarian, 6.43 µM with NCI-H226 lung and 2.5 µM with SK-MEL-28 melanoma.

As to `N#CCCNc1nonc1-c1nc2ccccc2n1CC(=O)c1ccc(N)cc1`, the GI50 in the test with SF-295 CNS is less than 0.01 µM; in the test with U251 CNS it was 0.036 µM; with NCI/ADR-RES ovarian, less than 0.01 µM; in the test on HCT-15 colon, 0.0334 µM; with OVCAR-4 ovarian it was 1.88 µM; in the test on HCC-2998 colon, 0.0338 µM. For the same molecule, the GI50 with OVCAR-3 ovarian was 0.0207 µM; with NCI-H226 lung it was 0.098 µM; in the test with SK-MEL-28 melanoma, 0.0351 µM. Further, the TGI in the test on SF-295 CNS is more than 100 µM; with U251 CNS, more than 100 µM; in the test on NCI/ADR-RES ovarian, 0.0429 µM; in the test on HCT-15 colon it was more than 100 µM; with OVCAR-4 ovarian, more than 100 µM; in the test with HCC-2998 colon, more than 100 µM. Further, the TGI in the test with UACC-257 melanoma is more than 100 µM; in the test on OVCAR-3 ovarian it was 0.0549 µM; with NCI-H226 lung, more than 100 µM; in the test on SK-MEL-28 melanoma, more than 100 µM.
